Laboratory results reported in patent US4031205A, “Method for treating nervous bladder” (priority 1975, dated 1977).

Columns and labels:
[1] = Physical and chemical properties: solubility; assay type: physicochemical
From the text: Ubiquinone n, for example, Ubiquinone 10(CoQ10), can be mainly obtained synthetically, though it is possible to extract the Ubiquinone from animal organs. Physical and chemical properties of Ubiquinone 10(CoQ10) produced synthetically are as follows.

mice = test: Teratogenesis test in mice; assay type: in vivo, mouse; settings: 6, 60, and 600 mg/Kg/day
mice of ICR-JCL strain = test: Acute toxicity test in mice; settings: for Maximum dose (no case of deaths): single dose, 7 days observation
From the text: (§1) In order to evaluate the acute toxicity of a single high dose administration of Ubiquinone 10(CoQ10), male and female rats of Wistar strain and male and female mice of ICR-JCL strain were used, and oral, intramuscular, subcutaneous, and intravenous administrations were studied. For the oral administration of Ubiquinone 10(CoQ10), gum Arabic suspension was used. For the intramuscular, subcutaneous, and intravenous administrations, Ubiquinone 10(CoQ10) is used as its solution in surfactant, hydrogenated castor oil ethylene oxide addition product (HCO-60).
(§2) Observation was carried out for 7 days, by using six males and six females for each dose group.

rats of Wistar strain [2] = test: Acute toxicity test in rats; settings: for Maximum dose (no case of deaths): single dose, 7 days observation
From the text: as §1, §2

[3] = Clinical test: effectiveness of Ubiquinone 10(CoQ10) for nervous bladder; assay type: in vivo, human; design: Pressure curve Volume: unit not given beside the values; Residual urine / Urethral R. (Resistance): unit not given here
Procedure: Six patients compalining of dysuria and incontinentia urinac due to nervous bladder were made sujects. Case 1 was nocturnal enuresis of unknown cause, Cases 2-4 were impairement of root of spinal nerve (nuclear type), and Cases 5 and 6 were spinal impairements (supra nuclear type).
Hard capsules containing 5 mg of Ubiquinone 10(CoQ10) in the present invention were orally administered.
The dose of 1-3 capsules each time was orally administered 3 times a day after meals for consecutive 3-4 weeks as a rule. Depending on cases, 10 mg of Ubiquinone 10(CoQ10) was concurrently injected. The measurement of bladder functions, that is, the measurement of the pressure curve in the bladder, was carried out in accordance with any conventional method. However, the quantitative bladder crystometrographic curve (BR) was obtained by a modified method for the crystometry. More particularly, the curve was prepared by observing the condition of weak autonomic rhythmical contraction of the bladder wall, when the sensitivity and the recording rate of a crystometer were risen after the infusion of a certain amount of the solution.

rabbits = test: Subacute oral toxicity test in rabbits
From the text: (§3) Ubiquinone 10(CoQ10) was compulsorily and orally administered every day for 23 days to each group consisting of six male rabbits and five female rabbits. […] On the 24th day, blood samples were collected from all the animals, and three males and two females from each group were then selectively autopsied.

rats = test: Teratogenesis test in rats; assay type: in vivo, rat; settings: 6, 60, and 600 mg/Kg/day
[4] = in vivo
From the text: as §1, §2
The dose was 40, 200, and 1000 mg/Kg/day, respectively.
as §3

rats of Wistar strain [5] = settings: rat, in vivo, po
Procedure: (§4) Ubiquinone 10(CoQ10) was compulsorily and orally administered every day for 5 weeks to each group consisting of 10 male rats and 10 female rats of Wistar strain. The dose was 40, 200, and 1000 mg/Kg/day, respectively. Ubiquinone 10(CoQ10) was used in the form of gum Arabic suspension, while the solution containing gum Arabic alone was used as the control group. Collection of blood and urine samples and autopsies were carried out 5 weeks after the initiation of administration.

rats of Wistar strain [6] = test: Chronic oral toxicity test
Procedure: Ubiquinone 10(CoQ10) was compulsorily and orally administered to each group consisting of 10 male rats and 10 female rats of Wistar strain for consecutive 26 weeks in a ratio of 6 days a week. The dose was 6, 60 and 600 mg/Kg/day, respectively. ubiquinone 10(CoQ10) was used in the form of gum Arabic suspension, whereas the solution containing gum Arabic alone is used as the control group. Collection of blood and urine samples and autopsies were carried out 26 weeks after the administration.

rats of Wistar strain [7] = test: Subacute toxicity test in rats
Procedure: as §4

[8] = Case 1, 20 days with 3 capsules
[9] = Case 1, 20 days with 3 capsules, After (Before: +)
[10] = Case 2, 30 days with 3 OR 20 days with 4 capsules
[11] = Case 3, 30 days with 1 OR 3 capsules
[12] = Case 4, 30 days with 3 capsules
[13] = Case 5, 50 days with 1 capsule, After (Before: ++)
[14] = Case 6, 30 days with 3 capsules
[15] = 6, 60, 600 mg/Kg/day oral, 23 days
[16] = 6, 60, 600 mg/Kg/day oral, 26 weeks
[17] = spontaneous pneumonia and aspiration pneumonia due to erroneous administration, group not stated

With `COC1=C(OC)C(=O)C(CC=C(C)CCC=C(C)CCC=C(C)CCC=C(C)CCC=C(C)CCC=C(C)CCC=C(C)CCC=C(C)CCC=C(C)CCC=C(C)C)=C(C)C1=O` [Ubiquinone 10(CoQ10)] the solubility ([1]; acetone) was “soluble”, the solubility ([1]; benzene) was “easily soluble” and the solubility ([1]; carbon tetrachloride) was “easily soluble”. For the same molecule, the solubility ([1]; chloroform) was “easily soluble”, the solubility ([1]; ethanol) was “insoluble” and the solubility ([1]; ether) was “soluble”. The solubility ([1]; methanol) was “hardly soluble”, the solubility ([1]; water) was “hardly soluble” and the “adverse effects in mothers, fetuses, and newborns” value (mice) was “no adverse effects were noted”. The deaths (mice of ICR-JCL strain; mice, at the maximum dose in each administration route) was “no case of deaths”, the “Maximum dose (no case of deaths)” value (mice of ICR-JCL strain; mice, intramuscular) was 500 mg/kg and the “Maximum dose (no case of deaths)” value (mice of ICR-JCL strain; mice, intravenous) was 250 mg/kg. The “Maximum dose (no case of deaths)” value (mice of ICR-JCL strain; mice, oral) was 4000 mg/kg, the “Maximum dose (no case of deaths)” value (mice of ICR-JCL strain; mice, subcutaneous) was 500 mg/kg and the LD50 (mice of ICR-JCL strain; mice, maximum doses of Table 1) was “far higher than the maximum dose mentioned above”. The “general condition, body weight, food intake and autopsy findings” value (mice of ICR-JCL strain; mouse, in vivo) was “no change was recognized”, the “general condition, body weight, food intake and autopsy findings” value (rats of Wistar strain [2]; rat, in vivo) was “no change was recognized” and the deaths (rats of Wistar strain [2]; rats, at the maximum dose in each administration route) was “no case of deaths”. The “Maximum dose (no case of deaths)” value (rats of Wistar strain [2]; rats, intramuscular) was 500 mg/kg, the “Maximum dose (no case of deaths)” value (rats of Wistar strain [2]; rats, intravenous) was 250 mg/kg and the “Maximum dose (no case of deaths)” value (rats of Wistar strain [2]; rats, oral) was 4000 mg/kg. For the same molecule, the “Maximum dose (no case of deaths)” value (rats of Wistar strain [2]; rats, subcutaneous) was 500 mg/kg, the LD50 (rats of Wistar strain [2]; rats, maximum doses of Table 1) was “far higher than the maximum dose mentioned above” and the Residual urine ([3]; Case 1 (nocturnal enuresis), 20 days with 3 capsules, After (Before: 35)) was 5. The “Effectiveness: Volume” value [3, 8] was “increased”, the Evaluation [3, 8] was “Effective” and the “Urethral R. (Resistance)” value ([3]; Case 1, 20 days with 3 capsules, After (Before: 110)) was 100. For the same molecule, the “Pressure curve Volume” value ([3]; Case 1, 20 days with 3 capsules, After (Before: 295)) was 340, the “Basal Pressure BR” value [3, 9] was “Normal” and the “Basal Pressure SR” value [3, 9] was “Normal”. The Residual urine ([3]; Case 2 (spina bifida), 30 days with 3 capsules OR 20 days with 4 capsules, After (Before: 0)) was 0, the “Effectiveness: Volume” value [3, 10] was “increased” and the Evaluation [3, 10] was “Unchanged”. The “Urethral R. (Resistance)” value ([3]; Case 2, 30 days with 3 OR 20 days with 4 capsules, After (Before: 30)) was 33, the “Pressure curve Volume” value ([3]; Case 2, 30 days with 3 OR 20 days with 4 capsules, After (Before: 90)) was 110 and the Residual urine ([3]; Case 3 (spina bifida), 30 days with 1 capsule OR 30 days with 3 capsules, After (Before: 75)) was 65. The “Effectiveness: Curve” value [3, 11] was “improved”, the “Effectiveness: Residual urine” value [3, 11] was “decreased” and the “Effectiveness: Volume” value [3, 11] was “increased”. The Evaluation [3, 11] was “Effective”, the “Pressure curve Volume” value ([3]; Case 3, 30 days with 1 OR 3 capsules, After (Before: 150)) was 200 and the Residual urine ([3]; Case 4 (spina bifida), 30 days with 3 capsules, After (Before: 95)) was 70. The “Effectiveness: Anischuria” value [3, 12] was “improved”, the “Effectiveness: BR” value [3, 12] was “appeared” and the “Effectiveness: Volume” value [3, 12] was “increased”. The “Urethral R. (Resistance)” value ([3]; Case 4, 30 days with 3 capsules, After (Before: 45)) was 49, the “Pressure curve Volume” value ([3]; Case 4, 30 days with 3 capsules, After (Before: 130)) was 345 and the “Basal Pressure BR” value ([3]; Case 4, 30 days with 3 capsules, After (Before: ±)) was “Normal”. For the same molecule, the Residual urine ([3]; Case 5 (paraplegia), 50 days with 1 capsule, After (Before: 20)) was 0, the “Effectiveness: BR SR” value ([3]; Case 5, 50 days with 1 capsule) was “normalized” and the “Effectiveness: Curve” value ([3]; Case 5, 50 days with 1 capsule) was “improved”. For the same molecule, the “Urethral R. (Resistance)” value ([3]; Case 5, 50 days with 1 capsule, After (Before: 76)) was 73, the “Pressure curve Volume” value ([3]; Case 5, 50 days with 1 capsule, After (Before: 240)) was 260 and the “Basal Pressure BR” value [3, 13] was “Normal”. For the same molecule, the “Basal Pressure SR” value [3, 13] was “Normal”, the “Pressure curve Volume” value ([3]; Case 6 (Myelitis Adhesiva), 30 days with 3 capsules, After (Before: 150)) was 150 and the “Effectiveness: Curve” value [3, 14] was “improved”. The “Effectiveness: SR” value [3, 14] was “improved”, the “Pressure curve Type” value ([3]; Case 6, 30 days with 3 capsules, After (Before: Reflex)) was “Reflex” and the “effective results and markedly effective results, number of cases” value ([3]; among the 6 cases) was 5 cases. For the same molecule, the “general condition and increase of body weight vs control” value (rabbits; [15]) was “no difference”, the “weight of each organ” value (rabbits; [15]) was “no effect” and the “hematological test and biochemical test of blood” value (rabbits; 6, 60, 600 mg/Kg/day oral, 23 days, 24th day) was “Abnormal findings were not obtained”. For the same molecule, the “macroscopical and histological observation” value (rabbits; hematoxylin.Eosine staining and liver fat staining, 23 days oral) was “abnormalities were not recognized”, the “electron-microscopic observation of liver (minute structure)” value (rabbits; seventh, 14th and 24th days) was “there were not recognized abnormal findings” and the “toxicity (overall)” value (rabbits; subacute oral, 23 days) was “there were not recognized the findings wherein the toxicity of Ubiquinone 10(CoQ10) will be suggested”. The “adverse effects in mothers, fetuses, and newborns” value (rats) was “no adverse effects were noted”, the overall safety [4] was “a very safe drug, without side-effects” and the “macroscopical and histological observation” value (rats of Wistar strain [5]) was “abnormality was not recognized”. For the same molecule, the “biochemical tests of blood and urine vs control” value (rats of Wistar strain [6]; [16]) was “No significant change”, the body weight (rats of Wistar strain [6]; [16]) was “increased as same as that of the control group” and the weight of organ (rats of Wistar strain [6]; [16]) was “no significant increase and decrease”. For the same molecule, the “general condition vs control” value (rats of Wistar strain [6]; 6, 60, 600 mg/Kg/day oral, 6 days a week, 26 weeks) was “no difference”, the “toxicity (overall)” value (rats of Wistar strain [6]; chronic oral, 26 weeks) was “no toxicity was observed” and the “macroscopical and histological observation vs control” value (rats of Wistar strain [6]; hemoxylin.Eosine staining and liver fat staining, 26 weeks) was “abnormalities were not recognized”. For the same molecule, the leukocytal percentages (rats of Wistar strain [6]; some increase and decrease, not dose dependent, 26 weeks) was “within extent of physiological fluctuations”, the “animals died, females” value (rats of Wistar strain [6]; [17]) was 3 and the “animals died, males” value (rats of Wistar strain [6]; [17]) was 11. The “dead animals during the experiment” value (rats of Wistar strain [7]; spontaneous pneumonia and aspiration pneumonia due to error of administration, group not stated) was 4 and the “toxicity (overall)” value (rats of Wistar strain [7]; subacute oral, 5 weeks) was “there was not recognized the toxicity”.
